# Test results published in paper PMC7906334, “The cell surface protein MUL_3720 confers binding of the skin pathogen Mycobacterium ulcerans to sulfated glycans and keratin” (PLoS Neglected Tropical Diseases, 2021).
# Target: T1, MUL_3720 (Mycobacterium ulcerans, UniProt A0PU23)
# T1 construct: full length aa 1-207 in pET28a, recombinant, purified; 22 kDa; the MUL_ locus tags are those of strain Agy99
# Experiment: SPR (Biacore T200)
# Type: binding
# Conditions: read-out: MUL_3720; protein amine-immobilised on CM5 chip, free glycan as analyte
row,Compound,Kd
1,CC(=O)N[C@H]1C(O)O[C@H](CO)[C@@H](O[C@@H]2O[C@@H](C)[C@@H](O)[C@@H](O)[C@@H]2O)[C@@H]1O[C@@H]1O[C@H](CO)[C@H](O)[C@H](OS(=O)(=O)O)[C@H]1O[C@@H]1O[C@@H](C)[C@@H](O)[C@@H](O)[C@@H]1O (stereo partly shown) [Fucα1-2(3-O-Su)Galβ1-3(Fucα1–4)GlcNAc],17400 ± 1900 nM
2,CC(=O)N[C@H]1C(O)O[C@H](COS(=O)(=O)O)[C@H](O)[C@@H]1O[C@@H]1OC(C(=O)O)=C[C@H](O)[C@H]1O (stereo partly drawn) [chondroitin 6S-disaccharide ΔUAα 1-3GalNAc-6S],99.2 ± 35 nM

# Target: T1, MUL_3720
# Experiment: glycan array (fluorescence)
# Type: binding
# Conditions: glycan printed on slide via spacer; 1 mM CaCl2 and 1 mM MgCl2 PBS printed for the cell arrays
# Source text: glycan array (fluorescence) on MUL_3720
row,Compound,fold change in fluorescence binding signal
1,"3,6-O-Su2-Galβ1-4(6-O-Su)GlcNAcβ-sp2 [compound 189]",2.46±0.56 fold
2,"3,6-O-Su2-Galβ1-4GlcNAcβ-sp2 [compound 182]",3.29±1.77 fold
3,"4,6-O-Su2-GalNAcβ1-4-(3-O-Ac)GlcNAcβ-sp3 [compound 199]",2.45±0.87 fold
4,6-O-Su-Galβ1-3(6-O-Su)GlcNAcβ-sp2 [compound 179],1.48±0.33 fold
5,6-O-Su-Galβ1-3GalNAcα-sp3 [compound 151],2.44±0.88 fold
6,6-O-Su-Galβ1-3GlcNAcβ-sp3 [compound 161],2.49±0.26 fold
7,"CC(=O)N[C@H]1[C@H](OCCCN)O[C@H](CO)[C@@H](O[C@@H]2O[C@H](CO)[C@H](OS(=O)(=O)O)[C@H](OS(=O)(=O)O)[C@H]2O)[C@@H]1O [compound 201, 3,4-O-Su2-Galβ1-4GlcNAcβ-sp3]",1.52±0.64 fold

# Target: MUL_3720 (Mycobacterium ulcerans) (UniProt A0PU23)
# Experiment: SPR; Biacore T200; MUL_3720 immobilised on a CM5 chip at pH 4.5 (5 uL/min, 600 s), ethanolamine blank flow cell as control; keratin extract flowed between 2 nM and 20 uM; double reference subtracted
# Conditions: not given
row,Compound,Kd
1,keratin isolated from human epidermis (mixed keratins with average molecular weight of 64.1 kDa),4.78 nM
